Assay results from patent EP4721736A1, “PHARMACEUTICAL COMPOSITION FOR EFFECTIVELY DELAYING AND TREATING MYOPIA” (priority 2023, dated 2024).
Counter-ions that a name gives are not always drawn.

Assays:
[1] = tested on: negative lens-induced myopia; assay: Choroidal thickness (OCTA) in the LIM myopia model; type: in vivo, guinea pigs; settings: after the 7-day administration experiment of Example 7; vs vehicle control group
Description: Using the animal subjects in Example 7, choroidal parameters were detected after completion of the experiment (a few animals died during the measurement due to reasons unrelated to the test drugs, so these samples were eliminated). Specifically, choroidal thickness was measured in the LIM myopia model animals after completion of the 7-day administration experiment. Commercially available OCTA (Spectralis HRA + OCT, OCTA, Heidelberg, Germany) modified to be more suitable for animal eyeballs was used to detect the choroidal thickness. Before detection, the guinea pigs were fully anesthetized.

[2] = tested on: negative lens-induced myopia; assay: Negative lens-induced myopia (LIM) model in guinea pigs: interocular difference in refraction; settings: for refraction indicators vs vehicle group: after the end of the administration period (7 days); for refraction indicators vs vehicle group / efficacy (refraction) in comparison between groups: 0.4%, 100 µL daily; for efficacy (refraction) in comparison between groups: day 3 of administration
Source text: (§1) Form-deprivation and lens-induced myopia models in guinea pigs are classic and recognized myopic animal models in the art, and may be used for evaluating efficacy and safety of myopia treatment drugs, and methods for establishing such models are well-known to those skilled in the art. For animal modeling and administration routes in the present application, reference is made to previously published scientific documents by the research group (Sen Zhang, Invest Ophthalmol Vis Sci. 2019 Jul 1; 60(8):3074-3083.; Miaozhen Pan, Exp Eye Res. 2021 Jan; 202:108332.).
After individuals with significant ocular diseases or abnormalities were eliminated from healthy 3-week-old tricolor guinea pigs (both males and females), by detecting refraction (using an infrared eccentric photorefraction device) and the eye axis (using A-scan ultrasonography), animals with refractive power between 3 diopters and 8.5 diopters (D), an interocular difference in refraction not exceeding 2 D, and both interocular differences in vitreous chamber depth and axial length not exceeding 0.05 mm were selected. These animals were randomly divided into the following 5 groups. • 1. Lens induction + vehicle control group (Control): monocular wear of a -4 D lens, with 100 µL of vehicle (DMSO:PEG300:Tween80:0.9% normal saline = 1:45:5:49) administrated to the lens-wearing eye daily for 1 week, and the number of samples = 11; • 2. Lens induction + R-alpha lipoic acid experimental group (R.ALA): monocular wear of a -4 D lens, with 100 µL of 0.4% R-alpha lipoic acid administrated to the lens-wearing eye daily for 1 week, and the number of samples = 15; • 3. Lens induction + S-alpha lipoic acid experimental group (S.ALA): monocular wear of a -4 D lens, with 100 µL of 0.4% S-alpha lipoic acid administrated to the lens-wearing eye daily for 1 week, and the number of samples = 13; • 4. Lens induction + dihydrolipoic acid experimental group (DHLA): monocular wear of a -4 D lens, with 100 µL of 0.4% dihydrolipoic acid administrated to the lens-wearing eye daily for 1 week, and the number of samples = 14; • 5.
Beginning on the day of modeling, the corresponding vehicle or drug was administrated to the experimental eye (lens-wearing eye) daily between 9:00 AM and 10:00 AM via periocular subconjunctival injection at an injection volume of 100 µL, once daily for 1 week. All procedures for negative lens-induced myopia modeling, peribulbar injection administration, detection of parameters such as refraction, and data processing for all the subjects were consistent with the schemes previously used by the research group (CN114796205B). At the beginning, on day 3, and at the end of the LIM model efficacy experiment, the refraction was detected in animal subjects. The statistical basis was the difference between the experimental eye (lens-wearing eye) and the contralateral eye of the same subject.

form-deprivation myopia [3] = assay: Choroidal thickness (OCT) in the guinea pig form-deprivation model; type: in vivo, guinea pigs
Description: Choroidal thickness of all animal subjects in Example 2 were detected using Spectralis HRA + OCT (Heidelberg Engineering, Heidelberg, Germany) for 30 minutes to 60 minutes after the final administration (of either the vehicle or lipoic acid).
After completion of the experiment, the choroidal thickness was detected in animals in the two control groups and the 0.5% lipoic acid choline ester eye drop administration group in Example 6 (some animals died during the measurement due to reasons unrelated to the test drugs, so the corresponding samples were eliminated).

form-deprivation myopia [4] = assay: Form-deprivation myopia model (FDM) in guinea pigs: interocular differences in refraction and eye axis parameters; settings: for Difference in Refraction (Refraction, D) Mean / Difference in Axial Length (AL, mm) Mean / Difference in Vitreous Chamber Depth (VCD, mm) Mean: FD + 0.94% lipoic acid, experimental eye vs contralateral eye; for Difference in Refraction (Refraction, D) Mean: periocular subconjunctival injection 100 µL once daily; for Difference in Axial Length (AL, mm) Mean / Difference in Vitreous Chamber Depth (VCD, mm) Mean: subconjunctival injection once daily; for myopia inhibition rate: 0.94% lipoic acid compared to the vehicle control group
Source text: as §1
After individuals with significant eye diseases or abnormalities were eliminated from three-week-old tricolor guinea pigs, by detecting refraction (using an infrared eccentric photorefraction device) and the eye axis (using A-scan ultrasonography), animals with refractive power between 3 and 8 diopters (D), an interocular difference in refraction not exceeding 2 D, and interocular differences in vitreous chamber depth and axial length not exceeding 0.05 mm were selected. These animals were randomly divided into two groups: an FD + vehicle control group (1% DMSO + 49% PEG300 + 50% normal saline, by volume) and an FD + 0.94% lipoic acid drug treatment group. At 8:00 AM on day 1 of the experiment, form deprivation was induced in the guinea pigs using a mask method, where the right eye (experimental eye) was occluded and the left eye was left unoccluded (contralateral eye). The FD induction was maintained throughout the entire period of the lipoic acid efficacy experiment, with the hoods only briefly removed for drug administration or ocular examination (for example, refraction detection). Starting on the first day of the efficacy experiment, position of the hood was checked daily at 8:00 AM, 12:00 PM, and 7:00 PM, as well as prior to administration. Individuals with hoods fell off more than three times during the administration period were excluded. Beginning on the day of modeling, the corresponding vehicle or drug (lipoic acid formulation) was administrated to the experimental eye daily between 9:00 AM and 10:00 AM via periocular subconjunctival injection at an injection volume of 100 µL. The vehicle or drug was administrated once daily for two consecutive weeks. Interocular refraction and eye axis parameters of all subjects were measured at the start of the efficacy experiment, 1 week after administration, and after the final administration. All data collection and processing methods were the same as those previously published by the laboratory of the inventors (Pan M, Zhao F, Xie B, et al. Dietary omega-3 polyunsaturated fatty acids are protective for myopia. Proc Natl Acad Sci U S A 2021 Oct 26; 118(43):e2104689118). Statistical basis was the difference between the experimental eye and the contralateral eye in the same subject.
Utilizing the same efficacy evaluation system for myopia treatment in the guinea pig form-deprivation model as described in Example 2, the prevention and control effects of mexidol, pyridoxol, astaxanthin, and blueberry fruit extract on myopia were compared against lipoic acid. The administration route was periocular subconjunctival injection.
The same efficacy evaluation system for myopia treatment in the guinea pig form-deprivation model as described in Example 2 was utilized to evaluate the myopia treatment effects of blueberry fruit extract + lipoic acid compound formulations at different prescription ratios. The administration route was periocular subconjunctival injection.

[5] = tested on: age-related macular degeneration; settings: oral administration; Kim et al. 2020; cited from earlier work
myopia [6] = settings: higher concentration of atropine; cited from earlier work
presbyopia [7] = settings: interim analysis, presbyopia treatment; cited from earlier work
presbyopia [8] = settings: cited from earlier work
myopia [9] = settings: wild-type mouse myopia models; cited from earlier work
[10] = tested on: form-deprivation-induced myopia; settings: mice with pigmentary degeneration of retina caused by a gene mutation (rd10); Landis et al. 2016; cited from earlier work

In the case of `O=C(O)CCCC[C@@H](S)CCS` (racemic) [dihydrolipoic acid, Dihydrolipoic acid], the “choroidal thickness, experimental eye vs contralateral eye, FIG. 13” value [1] is reported as “could effectively inhibit the decrease in choroidal thickness”, the “refraction indicators vs vehicle group” value [2] is reported as “extremely significant differences compared with the vehicle group” and the “anterior chamber depth and lens thickness, FIG. 10” value ([2]; guinea pig, in vivo) is reported as “did not affect the anterior chamber depth and lens thickness”. For the same compound, the ocular irritations ([2]; guinea pig, in vivo) was “neither the optical isomers of lipoic acid nor dihydrolipoic acid caused ocular irritations”.

In the case of `O=C(O)CCCCC1CCSS1` (stereo not drawn) [Lipoic acid, alpha-lipoic acid], the “choroidal thickness, experimental eye vs contralateral eye” value (form-deprivation myopia [3]; animals of Example 2 (0.94% lipoic acid), 30 to 60 minutes after the final administration) is reported as “could significantly inhibit the decrease in choroidal thickness in myopic eyes”, the “Difference in Refraction (Refraction, D) Mean” value (shortened to “Difference in Refraction”) (form-deprivation myopia [4]; 1 Week) is reported as -2.2 D and the “Difference in Axial Length (AL, mm) Mean” value (form-deprivation myopia [4]; 1 Week) is reported as 0.04364 mm. For the same compound, the “Difference in Vitreous Chamber Depth (VCD, mm) Mean” value (“Difference … (VCD, mm) Mean” below) (form-deprivation myopia [4]; 1 Week) was 0.0009091 mm, the “Difference in Axial Length (AL, mm) Mean” value (form-deprivation myopia [4]; 1 Week, listed as lipoic acid) was 0.04364 + 0.03295 mm and the “Difference … (VCD, mm) Mean” value (form-deprivation myopia [4]; 1 Week, listed as lipoic acid) was 0.0009091 + 0.027 mm. The “Difference in Refraction” value (form-deprivation myopia [4]; 2 Weeks) was -4.673 D, the “Difference in Axial Length (AL, mm) Mean” value (form-deprivation myopia [4]; 2 Weeks) was 0.06364 mm and the “Difference … (VCD, mm) Mean” value (form-deprivation myopia [4]; 2 Weeks) was 0.08545 mm. The “Difference in Axial Length (AL, mm) Mean” value (form-deprivation myopia [4]; 2 Weeks, listed as lipoic acid) was 0.06364 ± 0.03722 mm, the “Difference … (VCD, mm) Mean” value (form-deprivation myopia [4]; 2 Weeks, listed as lipoic acid) was 0.08545 + 0.02067 mm and the “Difference in Refraction” value (form-deprivation myopia [4]; Baseline) was -0.04545 D. The “Difference in Axial Length (AL, mm) Mean” value (form-deprivation myopia [4]; Baseline) was -0.004545 mm, the “Difference … (VCD, mm) Mean” value (form-deprivation myopia [4]; Baseline) was 0.09273 mm and the “axial elongation and increase in vitreous chamber depth, FIG. 5” value (form-deprivation myopia [4]; Example 4, 0.3% R-alpha lipoic acid, subconjunctival injection, 1 and 2 weeks) was “could effectively inhibit the axial elongation and the increase in vitreous chamber depth”. For the same compound, the “refraction (interocular difference), FIG. 4” value (form-deprivation myopia [4]; Example 4, week 1 detection, 0.3% R-alpha lipoic acid (R-LA), periocular subconjunctival injection, compared with the other test drugs) was “optimal myopia treatment effect”, the “anterior chamber depth, lens thickness, corneal curvature” value (form-deprivation myopia [4]; guinea pig, in vivo) was “unaffected by the drug” and the “mydriatic effect (pupil diameter)” value (form-deprivation myopia [4]; guinea pig, in vivo) was “No mydriatic effect was observed”. For the same compound, the “toxic reactions, ocular irritations, significant ocular abnormalities” value (form-deprivation myopia [4]; guinea pig, in vivo) was “no any toxic reactions, ocular irritations, or significant ocular abnormalities were observed”, the myopia inhibition rate (form-deprivation myopia [4]; week 1 of treatment) was 42.4% and the myopia inhibition rate (form-deprivation myopia [4]; week 2 of treatment) was 21.1%. For the same compound, the “efficacy, clinical endpoint” value [5] was “did not reach a clinical endpoint”.

For `O=C(O)CCCC[C@@H]1CCSS1` [R-alpha lipoic acid], the “refraction (interocular difference), FIG. 4” value (form-deprivation myopia [4]; Example 4, end of the administration period (2 weeks), subconjunctival injection, 0.05% atropine sulfate, 0.3% R-LA, 0.37% ES, 0.3% PH, 0.87% ASTA, 6% BFE, vs control) was “significant myopia treatment effects”, the “choroidal thickness, experimental eye vs contralateral eye, FIG. 13” value [1] was “could more significantly increase the choroidal thickness” and the “refraction indicators vs vehicle group” value [2] was “extremely significant differences compared with the vehicle group”. The “efficacy (refraction) in comparison between groups” value [2] was “superior to that of the dihydrolipoic acid group”.

In the case of `O=C(O)CCCC[C@H]1CCSS1` [S-alpha lipoic acid], the “efficacy (refraction) in comparison between groups” value [2] is reported as “superior to that of the dihydrolipoic acid group”.

For `CN1[C@@H]2CC[C@H]1C[C@@H](OC(=O)C(CO)c1ccccc1)C2` (stereo partly drawn) [atropine sulfate, Atropine sulfate, reference compound], the “choroidal thickness, experimental eye vs contralateral eye, FIG. 13” value [1] is listed as “could effectively inhibit the decrease in choroidal thickness” and the effect upon discontinuation (myopia [6]) is listed as “rebound effect upon discontinuation”.

For `C[N+](C)(C)CCOC(=O)CCCC[C@@H]1CCSS1` [lipoic acid choline ester, R-alpha-Lipoic acid choline ester], the “thinning of the choroid (choroidal thickness), FIG. 12” value (form-deprivation myopia [3]; Example 9, 0.5% lipoic acid choline ester eye drops, after completion of Example 6, vs negative control group) is listed as “could effectively inhibit thinning of the choroid”, the primary endpoint (presbyopia [7]) is listed as “fails to meet the primary endpoint” and the “axial elongation, FIG. 8-1 (B)” value (form-deprivation myopia [4]; Example 6, 0.5% LACE eye drops twice a day, 25 µL, vs vehicle) is listed as “significantly inhibit the axial elongation”. For the same compound, the “dose-effect relationship of myopia treatment effect” value (form-deprivation myopia [4]; Example 6, LACE eye drops 0.5% and 0.15%) was “positively related dose-effect relationship”, the “progression of negative refraction, FIG. 8-1 (A)” value (form-deprivation myopia [4]; Example 6, direct eye drop instillation twice a day, 25 µL, 0.5% LACE, 0.05% atropine sulfate positive control, throughout the administration period, vs vehicle) was “could significantly inhibit progression of negative refraction” and the “anterior chamber depth, lens thickness, corneal curvature, FIG. 8-2” value (form-deprivation myopia [4]; guinea pig, in vivo) was “no statistical differences”. The drug-induced mydriasis (form-deprivation myopia [4]; guinea pig, in vivo) was “did not observe drug-induced mydriasis”, the “ocular abnormalities or mydriasis” value (form-deprivation myopia [4]; guinea pig, in vivo) was “no ocular abnormalities or mydriasis were observed” and the bioavailability (presbyopia [8]; eye drops at a concentration of 1.5%) was “good bioavailability”. The safety (presbyopia [8]; in vivo) was “high safety”.

In the case of `O=C1O[C@H]([C@@H](O)CO)C(O)=C1O` [vitamin C, ascorbic acid], the “therapeutic effects on myopia” value (myopia [9]) is given as “failed to achieve therapeutic effects” and the form-deprivation-induced myopia [10] is given as “inhibit form-deprivation-induced myopia”.
